{"source": "patent US8324188B2", "about": "“Combinations of ET-18-O-CH3and anti-cancer agents for the treatment of cancer” (priority 2006, dated 2012)", "key": {"U118MG": {"system": "U118MG", "assay": "WST-1 proliferation assay, U118MG", "assay_type": "cell-based, human", "protocol": "AP-121 was prepared as 5 mM stock solution in distilled sterile water, Temozolomide (TMZ) (Haorui Pharma-Chem, Inc., Edison, N.J.) was prepared as 100 mM in sterile filtrated DMSO; Adriamycin (ADR) (Sigma) was prepared as 1 mM in distilled sterile water; Camptothecin (CTP) (Sigma) was prepared as 10 mM solution in 0.1 N NaOH; Tarceva (Proteinkinase, Germany) was prepared as 5 mM solution in sterile DMSO. All compound stocks were kept at −20° C. 2000 cells were plated in each well of 96-well flat bottom plates, and incubated overnight at 37 °C in 5% CO2. The growth of plated cells was measured by adding […] of WST-1 reagent (Roche Applied Sciences, Germany) to 3 control wells and measuring the absorbance at 650 nm and at 450 nm, respectively, with a SpectraMax250 plate reader. […] After this incubation, VVST-1 reagent was added to the wells and OD650-OD450 values were calculated as before. six wells were assayed for each conditions and standard deviation was determined: all experiments were performed at least three times independently. […] Six different concentrations of each drug were used in combinations index measurements and compared to +/− cells, and compared to controls without compound. Each combination was repeated 6 times at 2 different time points (24 and 96 hours), each of the above experiments was repeated 3 times to obtain valid results."}, "LN-18": {"system": "LN-18", "assay": "WST-1 proliferation assay, LN-18", "assay_type": "cell-based", "conditions": "Homo sapiens", "protocol": "2000 cells were plated in each well of 96-well flat bottom plates, and incubated overnight at 37 °C in 5% CO2. The growth of plated cells was measured by adding […] of WST-1 reagent (Roche Applied Sciences, Germany) to 3 control wells and measuring the absorbance at 650 nm and at 450 nm, respectively, with a SpectraMax250 plate reader. […] After this incubation, VVST-1 reagent was added to the wells and OD650-OD450 values were calculated as before. six wells were assayed for each conditions and standard deviation was determined: all experiments were performed at least three times independently. […] Six different concentrations of each drug were used in combinations index measurements and compared to +/− cells, and compared to controls without compound."}, "LNCaP cells": {"system": "LNCaP cells", "assay": "flow cytometric analysis of annexin V-PE positive / 7-AAD negative LNCaP cells", "assay_type": "cell-based, human", "protocol": "In a further approach, 10 μM 1-O-octadecyl-2-O-methyl-glycero-3-phosphocholine (final concentration; “CHEM”) and (ionizing) radiation (5 Gray units; “RT”) were administered simultaneously to the LNCaP cells but the subsequent incubation period was extended to 24 hours. Apoptosis was measured using the Apo-ONE™ Homogenous Caspase-3/7 Assay as described above and expressed as relative fluorescence units (RFLU). The percentage of apoptotic cells was determined by flow cytometric analysis of annexin V-PE positive-stained and 7-AAD (7-Amino ActinomycinD) negative-stained cells (both purchased from BD Biosciences, San Jose, Calif., USA) according to established standard protocols. The data represent means±SEM from three independent experiments.\nNext, the interaction of 1-O-octadecyl-2-O-methyl-glycero-3-phosphocholine administration (“CHEM”) and androgen deprivation (“AD”) was investigated. LNCaP cells were deprived of androgen for two days by charcoal absorption of serum according to established procedures well known in the art. CHEM was added in a final concentration of 5 μM and 10 μM, respectively.\nApoptosis was measured using the Apo-ONE™ Homogenous Caspase-3/7 Assay as described above and expressed as relative fluorescence units (RFLU). The percentage of apoptotic cells was determined via annexin V-PE/7-AAD staining as described above. The caspase-317 assay and annexin staining were performed 22 hours after CHEM treatment."}, "[1]": {"system": "androgen-insensitive LNCaP C4-2", "assay": "apoptosis in LNCaP C4-2 cells", "assay_type": "cell-based, human", "conditions": "data not shown"}, "[2]": {"system": "LNCaP cells grown orthotopically in the prostates of nude mice", "assay": "LNCaP cells grown orthotopically in the prostates of nude mice (PSA, tumor volume)", "assay_type": "in vivo", "conditions": "0-30 mg/kg intraperitoneal injections and concomitant irradiation; dose-dependent effect", "protocol": "FIG. 2. Depicts the in vivo effects of 1-O-octadecyl-2-O-methyl-glycero-3-phosphocholine (30 mg/kg body weight/day administered intraperitoneally for 15 days; FIG. 2A), (ionizing) radiation (absorbed dose of 5 Gray units administered on day 7); FIG. 2C), and a combination thereof (FIG. 2B) on LNCaP cells grown orthotopically in the prostates of nude mice (seven mice/group). Tumor growth was assessed via determining the serum level of the prostate-specific antigen (PSA) using a commercially available test kit as well as the tumor volume by means of magnetic resonance imaging. Graphed lines show tumor size in individual mice.\nIt is known that prostate cancer cell lines express FAS receptor, that some of them are not sensitive to FAS (O. W. Rokhlin et al., Cancer Res. 1997, 57: 1758-68). […]\n1-O-octadecyl-2-O-methyl-glycero-3-phosphocholine was administered intraperitoneally in a dose of 30 mg/kg body weight/day administered intraperitoneally for 15 days (FIG. 2A; studies using different routes of administration such as orally or by gavage are currently under way). […] Tumor growth was assessed via determining the serum level of the prostate-specific antigen (PSA) using a commercially available test kit as well as the tumor volume by means of magnetic resonance imaging."}, "HeLa": {"system": "HeLa", "conditions": "mean ± SD from three independent experiments, read-out: ED50 values for induction of apoptosis; cited from earlier work"}}}
{"smiles": "CCCCCCCCCCCCCCCCCCOCC(COP(=O)([O-])OCC[N+](C)(C)C)OC", "note": "(racemic) [AP-121, 1-O-octadecyl-2-O-methyl-glycero-3-phosphocholine]", "values": [{"measurement": "IC50", "setting": "U118MG; Homo sapiens, U-118-MG", "result": 3.6, "unit": "µM"}, {"measurement": "EC50", "setting": "U118MG; Homo sapiens, U-118-MG, single agent or compound mixture as labelled (arrays A2, A1), read-out: ED50 (the source's name)", "result": 4.8, "unit": "µM"}, {"measurement": "normalized ED50 (arrays B2, B1)", "setting": "U118MG; ratio to the largest value", "result": 0.71}, {"measurement": "IC50", "setting": "LN-18", "result": 1.3, "unit": "µM"}, {"measurement": "% Annexin V-PE pos. cells", "setting": "LNCaP cells; AD (androgen deprivation, two days) + 5 μM CHEM, AD alone 12.6", "result": 15.4, "unit": "%"}, {"measurement": "% Annexin V-PE pos. cells", "setting": "LNCaP cells; AD + 10 μM CHEM", "result": 27.4, "unit": "%"}, {"measurement": "% Annexin V-PE pos. cells", "setting": "LNCaP cells; AD + R1881 (two days prior) + 5 μM CHEM", "result": 14.6, "unit": "%"}, {"measurement": "% Annexin V-PE pos. cells", "setting": "LNCaP cells; AD + R1881 (two days prior) + 10 μM CHEM", "result": 21.6, "unit": "%"}, {"measurement": "% Annexin V-PE pos. cells", "setting": "LNCaP cells; CHEM 10 μM + RT 5 Gray simultaneously, 24 hours, means±SEM, p < 0.0001 vs CHEM and RT", "result": "31.7 ± 1.0", "unit": "%"}, {"measurement": "% Annexin V-PE pos. cells", "setting": "LNCaP cells; CHEM 10 μM alone, 24 hours, means±SEM, three experiments, Control 3.6 ± 0.2", "result": "18.6 ± 1.0", "unit": "%"}, {"measurement": "% Annexin V-PE pos. cells", "setting": "LNCaP cells; Contr. + 5 μM CHEM, 22 hours after CHEM, Contr. 9.6", "result": 13.0, "unit": "%"}, {"measurement": "% Annexin V-PE pos. cells", "setting": "LNCaP cells; Contr. + 10 μM CHEM, 22 hours after CHEM", "result": 17.5, "unit": "%"}, {"measurement": "apoptotic response", "setting": "LNCaP cells; androgen-deprived LNCaP cells, 5 and 10 μM, not reversed by synthetic androgen", "result": "dose-dependent significant increase"}, {"measurement": "apoptosis in CHEM+RT treated cells", "setting": "[1]", "result": "enhancement of apoptosis"}, {"measurement": "PSA (prostate specific antigen) levels", "setting": "[2]", "result": "reduced after few days of treatment"}, {"measurement": "tumor size", "setting": "[2]", "result": "shrinkage of the tumor size after one week of treatment"}, {"measurement": "EC50", "setting": "HeLa", "result": "5.17 ± 1.6", "unit": "µM"}]}
